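Following 48 hours of exposure in 96-well plates, responses at five concentrations were used to interpolate endpoints linearly. The concentration for 50% growth inhibition is given as GI50.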 Calls of active or inactive are those of the source. Cut-off read from the data, not from the text of the source: active = GI50 up to about 1.1 µM and inactive = higher.
Assays:
Experiment in all cases: DTP human tumour cell line panel, 48 h
CAKI-1 = system: CAKI-1
UO-31 = system: UO-31
HCT-116 = system: HCT-116
PC-3 = system: PC-3
MDA-MB-231 = system: MDA-MB-231
SK-MEL-2 = system: SK-MEL-2
SR = system: SR
HOP-62 = system: HOP-62
HOP-92 = system: HOP-92
HCT-15 = system: HCT-15
RPMI-8226 = system: RPMI-8226
OVCAR-4 = system: OVCAR-4
SF-268 = system: SF-268
OVCAR-5 = system: OVCAR-5
OVCAR-8 = system: OVCAR-8
HT-29 = system: HT-29
MOLT-4 = system: MOLT-4
OVCAR-3 = system: OVCAR-3
RXF 393 = system: RXF 393
NCI-H460 = system: NCI-H460

| Structure (SMILES) | GI50 (CAKI-1) | GI50 (UO-31) | GI50 (HCT-116) | GI50 (PC-3) | GI50 (MDA-MB-231) | GI50 (SK-MEL-2) | GI50 (SR) | GI50 (HOP-62) | GI50 (HOP-92) | GI50 (HCT-15) [µM] | GI50 (RPMI-8226) | GI50 (OVCAR-4) | GI50 (SF-268) | GI50 (OVCAR-5) | GI50 (OVCAR-8) | GI50 (HT-29) | GI50 (MOLT-4) | GI50 (OVCAR-3) | GI50 (RXF 393) | GI50 (NCI-H460) |
| --- | --- | --- | --- | --- | --- | --- | --- | --- | --- | --- | --- | --- | --- | --- | --- | --- | --- | --- | --- | --- |
| CC1OC(OCC2OC(Oc3ccc(C4CC(=O)c5c(O)cc(O)cc5O4)cc3O)C(O)C(O)C2O)C(O)C(O)C1O (stereo not given) | > 100 µM (inactive) | > 100 µM (inactive) | > 100 µM (inactive) | > 100 µM (inactive) | > 100 µM (inactive) | > 100 µM (inactive) | > 100 µM (inactive) | > 100 µM (inactive) | > 100 µM (inactive) | > 100 | > 100 µM (inactive) | > 100 µM (inactive) | > 100 µM (inactive) | > 100 µM (inactive) | > 100 µM (inactive) | > 100 µM (inactive) | > 100 µM (inactive) | > 100 µM (inactive) | > 100 µM (inactive) | > 100 µM (inactive) |
| COc1cc(C2c3cc4c(cc3OC(O)C2C)OCO4)cc(OC)c1O (stereo not given) | 8.79 µM (inactive) | 21.3 µM (inactive) | 3.95 µM (inactive) | 8.49 µM (inactive) | 10.1 µM (inactive) | 10.3 µM (inactive) | 2.9 µM (inactive) | 10.7 µM (inactive) | 15.9 µM (inactive) | 5.43 | 7.4 µM (inactive) | 35.1 µM (inactive) | 15.8 µM (inactive) | 46.8 µM (inactive) | 16.6 µM (inactive) | 4.7 µM (inactive) | 4.45 µM (inactive) | 4.24 µM (inactive) | 7.35 µM (inactive) | 4.85 µM (inactive) |
| CN(C)c1ccc(C(=NN)c2ccc(N(C)C)cc2)cc1 | 0.276 µM (active) | 6.49 µM (inactive) | 0.532 µM (active) | 0.755 µM (active) | 0.526 µM (active) | 0.121 µM (active) | 0.231 µM (active) | 1.9 µM (inactive) | 14.5 µM (inactive) | 0.229 | 0.859 µM (active) | 9.62 µM (inactive) | 8.91 µM (inactive) | 4.95 µM (inactive) | 2.52 µM (inactive) | 0.443 µM (active) | 0.361 µM (active) | 0.798 µM (active) | 1.98 µM (inactive) | 0.337 µM (active) |

— ChEMBL document CHEMBL1201862, “PubChem BioAssay data set” (2004)
